Molecular target: T1, PhoDHS (deoxyhypusine synthase from Pyrococcus horikoshii OT3) (Pyrococcus horikoshii, UniProt O50105)
T1 construct: gene dys; full length 1-342, 39 kDa; N-terminal His6 tag with TEV site, tag cleaved; expressed in E. coli B834 (DE3) pRARE2; homotetramer about 130 kDa
Test: X-ray crystal structure ([…] Å); UV absorbance of NAD+ bound in solution
Format: binding
Settings: NAD+ co-purified from E. coli, none added for the crystal; crystals at pH 4.8, 20 °C; UV at pH 8.0; site at the molA/molD interface

T1 sequence (O50105 whole entry): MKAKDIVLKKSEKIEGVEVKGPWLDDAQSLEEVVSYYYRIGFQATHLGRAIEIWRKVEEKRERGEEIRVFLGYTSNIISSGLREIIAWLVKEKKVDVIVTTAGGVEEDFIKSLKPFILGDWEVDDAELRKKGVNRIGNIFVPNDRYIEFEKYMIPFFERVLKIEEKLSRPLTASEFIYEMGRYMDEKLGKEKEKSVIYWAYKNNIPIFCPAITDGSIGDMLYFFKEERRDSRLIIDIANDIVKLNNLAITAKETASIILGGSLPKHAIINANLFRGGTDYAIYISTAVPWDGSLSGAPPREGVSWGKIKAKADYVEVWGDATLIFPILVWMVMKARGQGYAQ

## NC(=O)c1ccc[n+]([C@@H]2O[C@H](COP(=O)(O)OP(=O)(O)OC[C@H]3O[C@@H](n4cnc5c(N)ncnc54)[C@H](O)[C@@H]3O)[C@@H](O)[C@H]2O)c1 [NAD^+]
  X-ray crystal structure (2.2 Å); UV absorbance of NAD+ bound in solution: Two bulky electron density blocks shaped as NAD^+ were distinguished at the interface between molA

— article PMC7432094, “Flexible NAD^+ Binding in Deoxyhypusine Synthase Reflects the Dynamic Hypusine Modification of Translation Factor IF5A” (International Journal of Molecular Sciences, 2020)
